Our source for the IC50 values is patent publication US20250163104A1, “MACROCYCLIC IMMUNOMODULATORS” (priority 2021, published 2025).

Where a SMILES comes first, the peptide text is derived from it. Bridges are numbered along the chain shown (N, C = ends). [ ]: non-standard residue; d: D form. The star is where a group is joined. ξ: configuration not given here. Phe(4-COOH) = N[C@@H](Cc1ccc(C(=O)O)cc1)C(=O)O; Bip = N[C@@H](Cc1ccc(-c2ccccc2)cc1)C(=O)O; Phe(3-Cl) = N[C@@H](Cc1cccc(Cl)c1)C(=O)O; Phe(3-Me) = Cc1cccc(C[C@H](N)C(=O)O)c1; hArg = N=C(N)NCCCC[C@H](N)C(=O)O; ξW = NC(Cc1c[nH]c2ccccc12)C(=O)O; 3Pal = N[C@@H](Cc1cccnc1)C(=O)O; 4Pal = N[C@@H](Cc1ccncc1)C(=O)O; Cha = N[C@@H](CC1CCCCC1)C(=O)O; Cit = NC(=O)NCCC[C@H](N)C(=O)O; dCha = N[C@H](CC1CCCCC1)C(=O)O; dDab = NCC[C@@H](N)C(=O)O; Carboxymethyl = O=C(O)C*; Nle = CCCC[C@H](N)C(=O)O; Orn = NCCC[C@H](N)C(=O)O; Dab = NCC[C@H](N)C(=O)O; Dap = NC[C@H](N)C(=O)O; ξA = CC(N)C(=O)O

The test deals with T1, human PD-1 / PD-L1-Ig binding on Jurkat cell line over-expressing human PD-1 (Jurkat-PD-1) (Homo sapiens, UniProt Q15116).
T1 construct: expressed in transfected cells; host or cells: Jurkat
T1 sequence (Q15116 25-288): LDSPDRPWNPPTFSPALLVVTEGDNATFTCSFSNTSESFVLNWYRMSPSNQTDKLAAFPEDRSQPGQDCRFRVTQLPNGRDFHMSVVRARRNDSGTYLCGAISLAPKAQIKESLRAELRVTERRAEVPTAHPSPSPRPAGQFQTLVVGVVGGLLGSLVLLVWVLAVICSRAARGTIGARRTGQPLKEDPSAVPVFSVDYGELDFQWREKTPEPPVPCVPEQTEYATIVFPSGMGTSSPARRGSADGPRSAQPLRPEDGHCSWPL
As to the kind of experiment: Jurkat-PD-1 Cell Binding High-Content Screening Assay (CBA). The following applies: Jurkat-PD-1 cells, PE-labeled PD-L1-Ig 20 nM final; read-out: Jurkat HPD1_PDL1 IC50. The class given is cell-based. The method in brief: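 Read-out: high-content imaging of PE-tagged PD-L1-Ig bound to Jurkat cells overexpressing human PD-1, after fixation with 4% paraformaldehyde and Hoechst 33342 nuclear staining. Ligand was used at 20 nM final for 1 hour, after a 2 h compound exposure at 37° C in serum-containing DMEM.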

As for `CCCC[C@@H]1NC(=O)[C@H](CCCNC(=N)N)NC(=O)[C@@H](CC(C)C)NC(=O)[C@H](CCCN)NC(=O)[C@H]([C@@H](C)CC)NC(=O)[C@H](Cc2ccc(-c3ccccc3)cc2)NC(=O)[C@H](C(C)C)NC(=O)[C@H](Cc2c[nH]c3ccccc23)NC(=O)[C@H](CC(=O)O)NC(=O)[C@H](Cc2ccc(O)cc2)NC(=O)[C@H](Cc2ccccc2)NC(=O)CSC[C@@H](C(=O)N[C@@H](C)C(N)=O)NC(=O)[C@H]([C@@H](C)O)NC(=O)[C@H](C(C)C)NC1=O` [Compound 1152] ({CH2CO}-FYDWV[Bip]I[Orn][dL]R[Nle]VTCA-NH2; thioether N-14), the IC50 is 64.7 nM.

Take `CC(C)[C@@H]1NC(=O)[C@H](Cc2c[nH]c3ccccc23)NC(=O)[C@H](CC(=O)O)NC(=O)[C@H](Cc2ccc(OCC(=O)O)cc2)NC(=O)[C@H](Cc2ccc(OCC(=O)O)cc2)NC(=O)CSC[C@@H](C(=O)N[C@@H](C)C(N)=O)NC(=O)[C@H]([C@@H](C)O)NC(=O)[C@H](C(C)C)NC(=O)[C@H](CC2CCCCC2)NC(=O)[C@H](CCN)NC(=O)[C@@H](CC2CCCCC2)NC(=O)[C@H](CCCN)NC(=O)[C@H](CCCNC(N)=O)NC(=O)[C@H](Cc2ccc(-c3ccccc3)cc2)NC1=O` [Compound 1641] ({CH2CO}-Y(Carboxymethyl)Y(Carboxymethyl)DWV[Bip][Cit][Orn][dCha][Dab][Cha]VTCA-NH2; thioether N-14): the IC50 was 37.1 nM.

`CC(C)C[C@@H]1NC(=O)C(Cc2c[nH]c3ccccc23)NC(=O)[C@H](CC(=O)O)NC(=O)[C@H](Cc2ccc(O)cc2)NC(=O)[C@H](Cc2ccccc2)NC(=O)CSC[C@@H](C(=O)N[C@@H](C)C(N)=O)NC(=O)[C@H](CO)NC(=O)[C@H](C(C)C)NC(=O)[C@H](CC(C)C)NC(=O)[C@H](CC(N)=O)NC(=O)[C@@H](CC(C)C)NC(=O)[C@H](CCN)NC(=O)[C@H](C(C)C)NC(=O)[C@H](Cc2ccc(-c3ccccc3)cc2)NC1=O` (stereo partly drawn) [Compound 1214] ({CH2CO}-FYD[ξW]L[Bip]V[Dab][dL]NLVSCA-NH2; thioether N-14): the IC50 came to 14.1 nM.

As for `CC[C@H](C)[C@@H]1NC(=O)[C@H](Cc2ccc(-c3ccccc3)cc2)NC(=O)[C@H](C(C)C)NC(=O)[C@H](Cc2c[nH]c3ccccc23)NC(=O)[C@H](CC(=O)O)NC(=O)[C@H](Cc2ccc(O)cc2)NC(=O)[C@H](CC(N)=O)NC(=O)CSC[C@@H](C(=O)N[C@@H](C)C(N)=O)NC(=O)[C@H]([C@@H](C)O)NC(=O)[C@H](C(C)C)NC(=O)[C@H](CC2CCCCC2)NC(=O)[C@H](CCN)NC(=O)[C@@H](CC(C)C)NC(=O)[C@H](CCCN)NC1=O` [Compound 1163] ({CH2CO}-NYDWV[Bip]I[Orn][dL][Dab][Cha]VTCA-NH2; thioether N-14), the IC50 was 26.1 nM.

Regarding `CC(C)C[C@H]1NC(=O)[C@H](CCCN)NC(=O)[C@H](CCC(=O)O)NC(=O)[C@H](Cc2ccc(-c3ccccc3)cc2)NC(=O)[C@H](C(C)C)NC(=O)[C@H](Cc2cccc(Cl)c2)NC(=O)[C@H](CC(=O)O)NC(=O)[C@H](Cc2ccc(O)cc2)NC(=O)[C@H](CC(N)=O)NC(=O)CSC[C@@H](C(=O)N[C@@H](C)C(N)=O)NC(=O)[C@H]([C@@H](C)O)NC(=O)[C@H](C(C)C)NC(=O)[C@H](CC2CCCCC2)NC(=O)[C@H](CCN)NC1=O` [Compound 1494] ({CH2CO}-NYD[Phe(3-Cl)]V[Bip]E[Orn][dL][Dab][Cha]VTCA-NH2; thioether N-14), the IC50 stood at 13.8 nM.

In the case of `CC(C)C[C@@H]1NC(=O)[C@H](Cc2c[nH]c3ccccc23)NC(=O)[C@H](CC(=O)O)NC(=O)[C@H](Cc2ccc(O)cc2)NC(=O)[C@H](Cc2ccccc2)NC(=O)CSC[C@@H](C(=O)N[C@@H](C)C(N)=O)NC(=O)[C@H]([C@@H](C)O)NC(=O)[C@H](C(C)C)NC(=O)[C@H](CC(C)C)NC(=O)[C@H](CC(N)=O)NC(=O)[C@@H](C)NC(=O)[C@H](CCCN)NC(=O)[C@H](C(C)C)NC(=O)[C@H](Cc2ccc(-c3ccccc3)cc2)NC1=O` [Compound 1092] ({CH2CO}-FYDWL[Bip]V[Orn][dA]NLVTCA-NH2; thioether N-14), the IC50 was determined as 229 nM.

`CC(C)C[C@H]1NC(=O)[C@H](CCCN)NC(=O)[C@H](CCCCN)NC(=O)[C@H](Cc2ccc(-c3ccccc3)cc2)NC(=O)[C@H](C(C)C)NC(=O)[C@H](Cc2c[nH]c3ccccc23)NC(=O)[C@H](CC(=O)O)NC(=O)[C@H](Cc2ccc(OCC(=O)O)cc2)NC(=O)[C@H](CN)NC(=O)CSC[C@@H](C(=O)N[C@@H](C)C(N)=O)NC(=O)[C@H]([C@@H](C)O)NC(=O)[C@H](C(C)C)NC(=O)[C@H](CC2CCCCC2)NC(=O)[C@H](CCN)NC1=O` [Compound 1377] ({CH2CO}-[Dap]Y(Carboxymethyl)DWV[Bip]K[Orn][dL][Dab][Cha]VTCA-NH2; thioether N-14): the concentration for half-maximal inhibition (IC50) is 8.9 nM.

On to `Cc1cccc(C[C@@H]2NC(=O)[C@H](CC(=O)O)NC(=O)[C@H](Cc3ccc(C(=O)O)cc3)NC(=O)[C@H](Cc3ccncc3)NC(=O)CSC[C@@H](C(=O)N[C@@H](C)C(N)=O)NC(=O)[C@H]([C@@H](C)O)NC(=O)[C@H](C(C)C)NC(=O)[C@H](CC3CCCCC3)NC(=O)[C@H](CCN)NC(=O)[C@@H](CC(C)C)NC(=O)[C@H](CCCN)NC(=O)[C@H](C3CCCCC3)NC(=O)[C@H](Cc3ccc(-c4ccccc4)cc3)NC(=O)[C@H](C(C)C)NC2=O)c1` [Compound 1614], for which the half-maximal inhibitory concentration (IC50) worked out at 14.4 nM.

With `CC(C)C[C@@H]1NC(=O)[C@H](CCN)NC(=O)[C@@H](CC(C)C)NC(=O)[C@H](CCCN)NC(=O)[C@H](C(C)C)NC(=O)[C@H](Cc2ccc(-c3ccccc3)cc2)NC(=O)[C@H](C(C)C)NC(=O)[C@H](Cc2c[nH]c3ccccc23)NC(=O)[C@H](CC(=O)O)NC(=O)[C@H](Cc2ccncc2)NC(=O)[C@H](CN)NC(=O)CSC[C@@H](C(=O)NC(C)C(N)=O)NC(=O)[C@H]([C@@H](C)O)NC(=O)[C@H](C(C)C)NC1=O` (stereo partly drawn) [Compound 1236] ({CH2CO}-[Dap][4Pal]DWV[Bip]V[Orn][dL][Dab]LVTC[ξA]-NH2; thioether N-14), the half-maximal inhibitory concentration (IC50) is 17.4 nM.

`CC(C)C[C@@H]1NC(=O)[C@H](CCN)NC(=O)[C@@H](CC(C)C)NC(=O)[C@@H](CCN)NC(=O)[C@H](C(C)C)NC(=O)[C@H](Cc2ccc(-c3ccccc3)cc2)NC(=O)[C@H](C(C)C)NC(=O)[C@H](Cc2c[nH]c3ccccc23)NC(=O)[C@H](CC(=O)O)NC(=O)[C@H](Cc2ccc(O)cc2)NC(=O)[C@H](CC(N)=O)NC(=O)CSC[C@@H](C(=O)N[C@@H](C)C(N)=O)NC(=O)[C@H]([C@@H](C)O)NC(=O)[C@H](C(C)C)NC1=O` [Compound 1023] ({CH2CO}-NYDWV[Bip]V[dDab][dL][Dab]LVTCA-NH2; thioether N-14): the IC50 came to 4.6 nM.

For `CC(C)C[C@H]1NC(=O)[C@H](CCCN)NC(=O)[C@H](CCC(=O)O)NC(=O)[C@H](Cc2ccc(-c3ccccc3)cc2)NC(=O)[C@H](C(C)C)NC(=O)[C@H](Cc2c[nH]c3ccccc23)NC(=O)[C@H](CC(=O)O)NC(=O)[C@H](Cc2ccc(C#N)cc2)NC(=O)[C@H](CN)NC(=O)CSC[C@@H](C(=O)N[C@@H](C)C(N)=O)NC(=O)[C@H]([C@@H](C)O)NC(=O)[C@H](C(C)C)NC(=O)[C@H](CC2CCCCC2)NC(=O)[C@H](CCN)NC1=O` [Compound 2187], the half-maximal inhibitory concentration (IC50) is 13.2 nM.

As to `CC(C)[C@@H]1NC(=O)[C@H](Cc2c[nH]c3ccccc23)NC(=O)[C@H](CC(=O)O)NC(=O)[C@H](Cc2ccc(OCC(=O)O)cc2)NC(=O)[C@H](CCCCNC(=N)N)NC(=O)CSC[C@@H](C(=O)N[C@@H](CC(N)=O)C(N)=O)NC(=O)[C@H](CO)NC(=O)[C@H](C(C)C)NC(=O)[C@H](CC2CCCCC2)NC(=O)[C@H](CCN)NC(=O)[C@@H](C)NC(=O)[C@H](CCCN)NC(=O)[C@H](CC(N)=O)NC(=O)[C@H](Cc2ccc(-c3ccccc3)cc2)NC1=O` [Compound 2554] ({CH2CO}-[hArg]Y(Carboxymethyl)DWV[Bip]N[Orn][dA][Dab][Cha]VSCN-NH2; thioether N-14), the half-inhibitory concentration (IC50) was 16.9 nM.

Consider `Cc1cccc(C[C@@H]2NC(=O)[C@H](CC(=O)O)NC(=O)[C@H](Cc3ccc(OCC(=O)O)cc3)NC(=O)[C@H](Cc3cccnc3)NC(=O)CSC[C@@H](C(=O)N[C@@H](C)C(N)=O)NC(=O)[C@H]([C@@H](C)O)NC(=O)[C@H](C(C)C)NC(=O)[C@H](CC(C)C)NC(=O)[C@H](CCN)NC(=O)[C@@H](CC(C)C)NC(=O)[C@H](CCCN)NC(=O)[C@H](C(C)C)NC(=O)[C@H](Cc3ccc(-c4ccccc4)cc3)NC(=O)[C@H](C(C)C)NC2=O)c1` [Compound 1218] ({CH2CO}-[3Pal]Y(Carboxymethyl)D[Phe(3-Me)]V[Bip]V[Orn][dL][Dab]LVTCA-NH2; thioether N-14), for which the IC50 was determined as 5.6 nM.

As for `CC(C)C[C@H]1NC(=O)[C@H](CCCN)NC(=O)[C@H](CCCNC(N)=O)NC(=O)[C@H](Cc2ccc(-c3ccccc3)cc2)NC(=O)[C@H](C(C)C)NC(=O)[C@H](Cc2c[nH]c3ccccc23)NC(=O)[C@H](CC(=O)O)NC(=O)[C@H](Cc2ccc(OCC(=O)O)cc2)NC(=O)[C@H](CN)NC(=O)CSC[C@@H](C(=O)N[C@@H](C)C(N)=O)NC(=O)[C@H](C(C)C)NC(=O)[C@H](C(C)C)NC(=O)[C@H](CC2CCCCC2)NC(=O)[C@H](CCN)NC1=O` [Compound 1319] ({CH2CO}-[Dap]Y(Carboxymethyl)DWV[Bip][Cit][Orn][dL][Dab][Cha]VVCA-NH2; thioether N-14), the IC50 came to 49.7 nM.

In the case of `Cc1cccc(C[C@@H]2NC(=O)[C@H](CC(=O)O)NC(=O)[C@H](Cc3ccc(C(=O)O)cc3)NC(=O)[C@H](Cc3ccncc3)NC(=O)CSC[C@@H](C(=O)N[C@@H](C)C(N)=O)NC(=O)[C@H]([C@@H](C)O)NC(=O)[C@H](C(C)C)NC(=O)[C@H](CC(C)C)NC(=O)[C@H](CCN)NC(=O)[C@@H](CC(C)C)NC(=O)[C@H](CCCN)NC(=O)[C@H](C(C)C)NC(=O)[C@H](Cc3ccc(-c4ccccc4)cc3)NC(=O)[C@H](C(C)C)NC2=O)c1` [Compound 1182] ({CH2CO}-[4Pal][Phe(4-COOH)]D[Phe(3-Me)]V[Bip]V[Orn][dL][Dab]LVTCA-NH2; thioether N-14), the IC50 is 8.2 nM.
